For 26 compounds, MIC90 results are on record in ChEMBL document CHEMBL4118066, “QSAR-driven design, synthesis and discovery of potent chalcone derivatives with antitubercular activity” (Eur J Med Chem, 2017).

The structures appear in SMILES notation. In brackets after ≈: the same amount, converted by molar mass.

In the assay the test system is Mycobacterium tuberculosis variant bovis. In words: microbe, parasite or virus in culture. It counts as functional. The settings on record: ATCC 35734, 168 h.
With `CN(C)c1ccc(/C=C/C(=O)c2ccc(-c3ccccc3)cc2)cc1`, the MIC90 is more than 10 µM. Turning to `Cc1cccc(C(=O)/C=C/c2ccc([N+](=O)[O-])o2)c1`, the MIC90 was more than 10 µM. Consider `O=C(/C=C/c1ccc([N+](=O)[O-])cc1)c1ccc(N2CCCCC2)cc1`, for which the MIC90 was more than 10 µM. For the compound `COc1ccc(/C=C/C(=O)c2ccc(-c3ccccc3)cc2)cc1`, the MIC90 was more than 10 µM. Compound `O=C(/C=C/c1ccc([N+](=O)[O-])o1)c1ccc(-c2ccccc2)cc1` came in with an MIC90 of 0.59 µM (≈ 0.188 µg/mL). In turn, `CC(C)(C)c1ccc(C(=O)/C=C/c2ccc[nH]2)cc1` yielded an MIC90 of more than 10 µM. As to `CC(C)(C)c1ccc(C(=O)/C=C/c2ccco2)cc1`, the MIC90 was more than 10 µM. Then `CC(C)(C)c1ccc(C(=O)/C=C/c2ccc([N+](=O)[O-])s2)cc1`, with 0.5 µM (≈ 0.158 µg/mL). Turning to `COc1ccc(/C=C/C(=O)c2cccc(I)c2)cc1`, the MIC90 is 9.47 µM (≈ 3.45 µg/mL). `O=C(/C=C/c1ccc([N+](=O)[O-])s1)c1ccc(N2CCOCC2)cc1` yielded an MIC90 of 9.12 µM (≈ 3.14 µg/mL). Compound `COc1ccc(/C=C/C(=O)c2cccc(Br)c2)cc1` came in with an MIC90 of 9.38 µM (≈ 2.98 µg/mL). Consider `CCCCc1ccc(C(=O)/C=C/c2ccc([N+](=O)[O-])s2)cc1`, for which the MIC90 stood at 1.64 µM (≈ 0.517 µg/mL). `CSc1ccc(C(=O)/C=C/c2ccc([N+](=O)[O-])s2)cc1` returned an MIC90 of 0.56 µM (≈ 0.171 µg/mL). Then `O=C(/C=C/c1ccc(Cl)s1)c1ccc(-n2ccnc2)cc1`, with 9.52 µM (≈ 3 µg/mL).

As to `O=C(/C=C/c1ccco1)c1ccc(N2CCCCC2)cc1`, the MIC90 was more than 10 µM. `Cc1ccc(C(=O)/C=C/c2ccc([N+](=O)[O-])s2)cc1` displayed an MIC90 of 0.98 µM (≈ 0.268 µg/mL).

Compound `O=C(/C=C/c1ccc([N+](=O)[O-])o1)c1ccc(I)cc1` gave an MIC90 of 2.57 µM (≈ 0.949 µg/mL). `CCCCc1ccc(C(=O)/C=C/c2ccc([N+](=O)[O-])o2)cc1` returned an MIC90 of 0.36 µM (≈ 0.108 µg/mL). Then `O=C(/C=C/c1ccc([N+](=O)[O-])s1)c1ccc(C2CCCCC2)cc1`, with 2.38 µM (≈ 0.813 µg/mL); and `O=C(/C=C/c1ccc([N+](=O)[O-])o1)c1cccc(Br)c1`, with 0.18 µM (≈ 0.058 µg/mL).

Take `O=C(/C=C/c1cccc([N+](=O)[O-])c1)c1ccc(N2CCCCC2)cc1`: the MIC90 was more than 10 µM. `CSc1ccc(C(=O)/C=C/c2ccc([N+](=O)[O-])o2)cc1` had an MIC90 of 0.26 µM (≈ 0.0752 µg/mL). Consider `Cc1ccccc1C(=O)/C=C/c1ccc([N+](=O)[O-])o1`, for which the MIC90 was found to be 0.27 µM (≈ 0.0695 µg/mL).

For `O=C(/C=C/c1ccc([N+](=O)[O-])s1)c1ccc(-n2ccnc2)cc1`, the MIC90 was determined as 0.23 µM (≈ 0.0748 µg/mL). `CSc1ccc(C(=O)/C=C/c2ccco2)cc1` yielded an MIC90 of more than 10 µM. For `O=C(/C=C/c1ccc([N+](=O)[O-])o1)c1ccc(N2CCCC2)cc1`, the MIC90 worked out at 2.18 µM (≈ 0.681 µg/mL).
